Measurements from US20220017941A1, “ELECTROANALYTICAL DETERMINATION OF LEUKOCYTE ESTERASE” (Board of Regents, the University of Texas System, priority 2020, published 2022).

Experiments:
[1] = system: leukocyte esterase (LE); experiment: Internally calibrated electrochemical continuous enzyme assay (ICECEA) of LE with ester substrate coupled to alcohol oxidase; type: biochemical, human; conditions: pH 7.40 PBS
Procedure: The original suspension of human leukocytes was diluted 10 times with a pH 7.40 0.050 M phosphate buffer saline (PBS, 154 mM NaCl) solution that contained 10 vol. % DMSO and left for 10 min to lyse the leukocytes chemically. The suspension was then sonicated for 30 s (Q125 Qsonica, 20% power) to complete the lysing process. The sonication was done in 5 s intervals with 5 s rest cycles to minimize the enzyme deactivation due to solution overheating. The lysate was centrifuged at 10000×g for 5 min, and the supernatant was transferred to a 1.70-mL microcentrifuge tube (Corning, N.Y.) and stored in a freezer at −20° C. when not in use.
Assays. The assays of LE were conducted at a N-CNT electrode by following the protocol of internally calibrated electrochemical continuous enzyme assay (ICECEA) (Zhang et. al., M.; Anal. Chem. 2013, 85, 6026-6032; Bekhit et. al., Anal. Chem. 2019, 91, 3163-3169).
(§1) The assay solution (5.00 mL) was made of pH 7.40 PBS containing both methyl pyruvate (MP) and alcohol oxidase (AOx). The current flowing through a N-CNT electrode at −0.20 V was measured continuously while a stirred assay solution was sequentially spiked with three 50-μL calibrating aliquots of H2O2 and one 50-μL aliquot of LE. This produced an ICECEA amperogram with the three current steps providing a calibration slope CS and an ascending linear current segment having an assay slope AS. The ICECEA amperograms shown were shortened to display only the linear portion of ascending current segment.
The AS and CS slopes were used to calculate the unit U of the enzymatic activity of LE:
By definition, one unit (U) of activity was equal to the amount of LE that consumed 1.0 micromole of MP per 1.0 min in a pH 7.40 PBS solution at room temperature (21° C.).
Kinetic Testing. The hypothesis formulated above was tested first by determining the kinetics of reaction 1. To ensure that the reaction was rate-limiting, the excess of AOx (25 mU) over LE (3 mU) was used. In addition, the concentration of H2O2 was kept within a linear range of calibration plot (0.50-40 μM) to avoid the non-linearity of electrode response to H2O2 from affecting kinetic measurements.
Assay of LE. The analytical merit of the coupling of reactions 1 and 2 via methanol was evaluated by using the MP to assay LE in PBS samples. To conduct the assay under the zero-order kinetics, the high concentration of MP was selected (88 μM, >10Km).
Control Experiments with Small Esters Other Than Methyl Pyruvate. […] The data in FIG. 7 underline the uniqueness of the methyl pyruvate-based method for the quantification of LE as a biomarker of infection.

[2] = Solubility in water; type: physicochemical
[3] = Non-enzymatic hydrolysis in assay solution (steady current steps before LE addition); type: physicochemical; conditions: pH 7.40 PBS assay solution, <200 s
Procedure: as §1
The slope of current segments at >200 s increased with the concentration of MP in a solution.

[4] = 1.4 nM LE, 25 mU AOx, 1-40 μM MP, Michaelis-Menten fit, RSD<10%

specificity constant kcatKm^−1 [1, 4]: 2.3e+06 M⁻¹ s⁻¹ | turnover number kcat [1, 4]: 15 s⁻¹ | recognition of ester by LE as substrate (ascending current segment after LE addition at 200 s) ([1]; 88 μM ester, 25 mU AO, N-CNT electrode −0.20 V, FIG. 7): produced the ascending current segment | average specific activity of LE reacting with MP (slope of LE activity vs. LE concentration) ([1]; 88 μM MP, 25 mU AOx, linear up to 260 μg L^−1 LE): 12 U mg^−1 | solubility in water [2]: good solubility in water | non-enzymatic hydrolysis [3]: slow on the experimental time scale
Compound: COC(=O)C(C)=O [MP, Methyl pyruvate]
